# Measured values taken from patent US4201769A, “Antibiotic substances No. 17927A1 and No. 17927A2 and process for producing the same” (Sankyo Company Limited, priority 1977, dated 1980).
# Like-named read-outs stand apart in the source and are kept apart here.
# Assays:
# Format in all cases: cell-based
# Escherichia coli 640 = experiment: Synergistic action with Ampicillin (MIC)
# Method: (§1) (13) Synergistic action: Synergistic action of the substance No. 17927A2 having 0.23 μg/ml of I50 (50% Inhibitory concentration) against β-lactamase produced from Proteus morganii with Cephaloridine or Ampicillin are summarized in Tables 6 and 7.
# Escherichia coli 718 = experiment: Synergistic action with Ampicillin (MIC)
# Method: as §1
# Proteus rettgeri 1603 = experiment: Synergistic action with Ampicillin or Cephaloridine (MIC)
# Method: as §1
# (§2) (13) Synergistic action: Synergistic action of the substance No. 17927A1 having 0.27 μg/ml of I50 (50% Inhibitory concentration) against β-lactamase produced from Proteus morganii with Cephaloridine are summarized in Table 10.
# [1] = system: Klebsiella pneumoniae 847; experiment: Synergistic action with Cephaloridine (MIC)
# Method: as §1, §2
# Proteus inconstans 1708 = experiment: Synergistic action with Cephaloridine (MIC)
# Method: as §1, §2
# Escherichia coli 609 = experiment: Synergistic action with Cephaloridine (MIC)
# Method: as §2
# Proteus mirabilis 1332 = experiment: Synergistic action with Cephaloridine (MIC)
# Method: as §2
# Proteus morganii 1510 = experiment: Synergistic action with Cephaloridine (MIC)
# Method: as §2
# [2] = No. 17927A2 coexisted 0.1 μg/ml
# [3] = No. 17927A1 coexisted 0.1 μg/ml
# [4] = No. 17927A1 coexisted 0.4 μg/ml
compound,measurement,setting,value
CC1(C)S[C@@H]2[C@H](NC(=O)[C@H](N)c3ccccc3)C(=O)N2[C@H]1C(=O)O [Ampicillin],MIC,"Escherichia coli 640; Escherichia coli, 640, read-out: MIC, Ampicillin alone",25 mg/L
same,"MIC, Ampicillin with No. 17927A2 coexisted",Escherichia coli 640; [2],1.56 mg/L
same,MIC,"Escherichia coli 718; Escherichia coli, 718, read-out: MIC, Ampicillin alone",800 mg/L
same,"MIC, Ampicillin with No. 17927A2 coexisted",Escherichia coli 718; [2],25 mg/L
same,"MIC, Ampicillin with No. 17927A2 coexisted",Proteus rettgeri 1603; [2],50 mg/L
same,MIC,"Proteus rettgeri 1603; Providencia rettgeri, 1603, read-out: MIC, Ampicillin alone",100 mg/L
O=C(Cc1cccs1)N[C@@H]1C(=O)N2C(C(=O)[O-])=C(C[n+]3ccccc3)CS[C@H]12 [Cephaloridine],MIC,"[1]; Klebsiella pneumoniae, 847, read-out: MIC, Cephaloridine alone",100 mg/L
same,"MIC, Cephaloridine with No. 17927A1 coexisted",[1]; [3],12.5 mg/L
same,"MIC, Cephaloridine with No. 17927A1 coexisted",[1]; [4],12.5 mg/L
same,"MIC, Cephaloridine with No. 17927A2 coexisted",[1]; [2],12.5 mg/L
same,"MIC, Cephaloridine with No. 17927A1 coexisted",Proteus inconstans 1708; [3],6.25 mg/L
same,"MIC, Cephaloridine with No. 17927A1 coexisted",Proteus inconstans 1708; [4],3.13 mg/L
same,"MIC, Cephaloridine with No. 17927A2 coexisted",Proteus inconstans 1708; [2],12.5 mg/L
same,MIC,"Proteus inconstans 1708; Providencia alcalifaciens, 1708, read-out: MIC, Cephaloridine alone",1600 mg/L
same,"MIC, Cephaloridine with No. 17927A1 coexisted",Proteus rettgeri 1603; [3],50 mg/L
same,"MIC, Cephaloridine with No. 17927A1 coexisted",Proteus rettgeri 1603; [4],25 mg/L
same,MIC,"Proteus rettgeri 1603; Providencia rettgeri, 1603, read-out: MIC, Cephaloridine alone",1600 mg/L
same,MIC,"Escherichia coli 609; Escherichia coli, 609, read-out: MIC, Cephaloridine alone",100 mg/L
same,"MIC, Cephaloridine with No. 17927A1 coexisted",Escherichia coli 609; [3],100 mg/L
same,"MIC, Cephaloridine with No. 17927A1 coexisted",Escherichia coli 609; [4],50 mg/L
same,"MIC, Cephaloridine with No. 17927A1 coexisted",Proteus mirabilis 1332; [3],50 mg/L
same,"MIC, Cephaloridine with No. 17927A1 coexisted",Proteus mirabilis 1332; [4],50 mg/L
same,MIC,"Proteus mirabilis 1332; Proteus mirabilis, 1332, read-out: MIC, Cephaloridine alone",100 mg/L
same,MIC,"Proteus morganii 1510; Morganella morganii, 1510, read-out: MIC, Cephaloridine alone",1600 mg/L
same,"MIC, Cephaloridine with No. 17927A1 coexisted",Proteus morganii 1510; [3],50 mg/L
same,"MIC, Cephaloridine with No. 17927A1 coexisted",Proteus morganii 1510; [4],50 mg/L
